# Results from PMC12298351, “Novel 3,19-(N-Phenyl-3-(4-fluorophenyl)-pyrazole) Acetal of Andrographolide Promotes Cell Cycle Arrest and Apoptosis in MDA-MB-231 Breast Cancer Cells” (Pharmaceuticals, 2025).
# How the values were obtained:
# MCF7 = details: MCF7, Breast
# RPMI-8226 = details: RPMI-8226, Leukemia
# IGROV1 = details: IGROV1, Ovarian
# SK-OV-3 = details: SK-OV-3, Ovarian
# U251 = details: U251, CNS
# TK-10 = format: cell-based; details: TK-10, Renal
# RXF 393 = details: RXF 393, Renal
# SK-MEL-28 = details: SK-MEL-28, Melanoma
# MDA-MB-468 = details: MDA-MB-468, Breast
# UACC-257 = details: UACC-257, Melanoma
# UACC-62 = details: UACC-62, Melanoma
# OVCAR-8 = details: OVCAR-8, Ovarian
# A498 = details: A498, Renal
# CAKI-1 = details: CAKI-1, Renal
# SF-268 = details: SF-268, CNS
# M14 = format: cell-based; details: M14, Melanoma
# KM12 = details: KM12, Colon
# SW-620 = details: SW-620, Colon
# OVCAR-3 = details: OVCAR-3, Ovarian
# UO-31 = details: UO-31, Renal
# K-562 = details: K-562, Leukemia
# DU-145 = details: DU-145, Prostate
# [1] = read-out: 50% lethal concentration (LC50), Leukemia
# [2] = read-out: 50% lethal concentration (LC50)
# [3] = read-out: 50% lethal concentration (LC50), Renal
# [4] = read-out: 50% lethal concentration (LC50), Non-Small Cell Lung
smiles,measurement,setting,value
C=C1CCC2C3(C)COC(c4cn(-c5ccccc5)nc4-c4ccc(C)cc4)OC3CCC2(C)C1CC=C1C(=O)OCC1O (centres unmarked) [1i],GI50,CCRF-CEM; Leukemia,8.4 µM
same,Total growth inhibition (TGI),CCRF-CEM; Leukemia,> 100 µM
same,CC50,CCRF-CEM; [1],> 100 µM
same,GI50,MCF7,1.57 µM
same,Total growth inhibition (TGI),MCF7,4.6 µM
same,CC50,MCF7; [2],5.4 µM
same,GI50,RPMI-8226,8.6 µM
same,Total growth inhibition (TGI),RPMI-8226,> 100 µM
same,CC50,RPMI-8226; [2],> 100 µM
same,GI50,IGROV1,3.95 µM
same,Total growth inhibition (TGI),IGROV1,12.5 µM
same,CC50,IGROV1; [2],> 100 µM
same,GI50,SK-OV-3,3.47 µM
same,Total growth inhibition (TGI),SK-OV-3,12.1 µM
same,CC50,SK-OV-3; [2],> 100 µM
same,GI50,U251,2.61 µM
same,Total growth inhibition (TGI),U251,3.12 µM
same,GI50,TK-10,1.33 µM
same,GI50,RXF 393,1.49 µM
same,Total growth inhibition (TGI),RXF 393,2.97 µM
same,CC50,RXF 393; [2],5.92 µM
same,GI50,SK-MEL-28,1.74 µM
same,Total growth inhibition (TGI),SK-MEL-28,3.33 µM
same,CC50,SK-MEL-28; [2],6.39 µM
same,GI50,MDA-MB-468,1.85 µM
same,Total growth inhibition (TGI),MDA-MB-468,3.45 µM
same,CC50,MDA-MB-468; [2],6.43 µM
same,GI50,UACC-257,1.74 µM
same,Total growth inhibition (TGI),UACC-257,3.47 µM
same,GI50,UACC-62,1.64 µM
same,Total growth inhibition (TGI),UACC-62,3.15 µM
same,CC50,UACC-62; [2],6.04 µM
same,Total growth inhibition (TGI),"HOP-62; HOP-62, Non-Small Cell Lung",4.44 µM
same,GI50,"HOP-62; HOP-62, Non-Small-Cell Lung",2.12 µM
same,CC50,"HOP-62; read-out: 50% lethal concentration (LC50), HOP-62, Non-Small Cell Lung",9.27 µM
same,GI50,OVCAR-8,1.67 µM
same,Total growth inhibition (TGI),OVCAR-8,3.51 µM
same,CC50,OVCAR-8; [2],7.37 µM
same,GI50,A498,4.03 µM
same,Total growth inhibition (TGI),A498,15.8 µM
same,CC50,A498; [2],48.8 µM
same,GI50,CAKI-1,1.71 µM
same,Total growth inhibition (TGI),CAKI-1,3.37 µM
same,CC50,CAKI-1; [2],6.64 µM
same,GI50,SF-268,2.61 µM
same,Total growth inhibition (TGI),SF-268,7.58 µM
same,CC50,SF-268; [2],55.4 µM
same,GI50,LOX IMVI; Melanoma,1.43 µM
same,Total growth inhibition (TGI),LOX IMVI; Melanoma,2.74 µM
same,CC50,"LOX IMVI; read-out: 50% lethal concentration (LC50), Melanoma",5.25 µM
same,Total growth inhibition (TGI),"NCI-H460; NCI-H460, Non-Small Cell Lung",3.56 µM
same,GI50,"NCI-H460; NCI-H460, Non-Small-Cell Lung",1.83 µM
same,CC50,"NCI-H460; read-out: 50% lethal concentration (LC50), NCI-H460, Non-Small Cell Lung",6.91 µM
same,GI50,SR; Leukemia,2.74 µM
same,Total growth inhibition (TGI),SR; Leukemia,> 100 µM
same,CC50,SR; [1],> 100 µM
same,GI50,SN12C; Renal,1.66 µM
same,Total growth inhibition (TGI),SN12C; Renal,3.44 µM
same,CC50,SN12C; [3],7.15 µM
same,GI50,ACHN; Renal,1.83 µM
same,Total growth inhibition (TGI),ACHN; Renal,3.5 µM
same,CC50,ACHN; [3],6.67 µM
same,Total growth inhibition (TGI),A549/ATCC; Non-Small Cell Lung,13.5 µM
same,GI50,A549/ATCC; Non-Small-Cell Lung,3.09 µM
same,CC50,A549/ATCC; [4],> 100 µM
same,GI50,M14,1.76 µM
same,Total growth inhibition (TGI),M14,3.61 µM
same,GI50,KM12,3.01 µM
same,Total growth inhibition (TGI),KM12,7.93 µM
same,GI50,SW-620,5.42 µM
same,CC50,SW-620; [2],> 100 µM
same,GI50,OVCAR-3,1.95 µM
same,Total growth inhibition (TGI),OVCAR-3,3.82 µM
same,CC50,OVCAR-3; [2],7.49 µM
same,GI50,UO-31,1.77 µM
same,Total growth inhibition (TGI),UO-31,2.67 µM
same,CC50,UO-31; [2],5.36 µM
same,GI50,K-562,3.82 µM
same,Total growth inhibition (TGI),K-562,> 100 µM
same,CC50,K-562; [2],> 100 µM
same,GI50,DU-145,2.05 µM
same,Total growth inhibition (TGI),DU-145,4.19 µM
same,CC50,DU-145; [2],8.55 µM
same,GI50,NCI/ADR-RES; Ovarian,1.65 µM
same,Total growth inhibition (TGI),NCI/ADR-RES; Ovarian,3.71 µM
same,CC50,"NCI/ADR-RES; read-out: 50% lethal concentration (LC50), Ovarian",8.34 µM
same,Total growth inhibition (TGI),EKVX; Non-Small Cell Lung,4.96 µM
same,GI50,EKVX; Non-Small-Cell Lung,2.13 µM
same,CC50,EKVX; [4],> 100 µM
